Legend:
[1] = tested on: Ehrlich ascites tumour, ELD hyperdiploid; assay: Ehrlich ascites tumour, ELD hyperdiploid (46 chromosomes), growth inhibition in mice; format: in vivo, SPF NMRI mice; conditions: 100 mg/kg, one i.p. injection
In short: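 SPF NMRI mice implanted i.p. with 2 × 10^6 ELD hyperdiploid Ehrlich ascites cells, given one i.p. injection the day after implantation. Animals killed on day 8; tumour weights compared with controls.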

[2] = biological target: T1, rabbit uterus cytosol progesterone receptor (Oryctolagus cuniculus, UniProt P06186); assay: Relative affinity to rabbit uterus cytosol progesterone receptor (3H-progesterone competition); format: binding; conditions: compared to progesterone; 50% competition with 3H-progesterone; 16-18 hours at 4° C.
T1 construct: One ml portions of the supernatant (rabbit uterus cytosol) were pipetted into small centrifuge tubes of glass; from tissue; host or cells: uterus cytosol (105,000×g supernatant) of female rabbits pretreated with polyestradiol phosphate
T1 sequence (P06186 1-930): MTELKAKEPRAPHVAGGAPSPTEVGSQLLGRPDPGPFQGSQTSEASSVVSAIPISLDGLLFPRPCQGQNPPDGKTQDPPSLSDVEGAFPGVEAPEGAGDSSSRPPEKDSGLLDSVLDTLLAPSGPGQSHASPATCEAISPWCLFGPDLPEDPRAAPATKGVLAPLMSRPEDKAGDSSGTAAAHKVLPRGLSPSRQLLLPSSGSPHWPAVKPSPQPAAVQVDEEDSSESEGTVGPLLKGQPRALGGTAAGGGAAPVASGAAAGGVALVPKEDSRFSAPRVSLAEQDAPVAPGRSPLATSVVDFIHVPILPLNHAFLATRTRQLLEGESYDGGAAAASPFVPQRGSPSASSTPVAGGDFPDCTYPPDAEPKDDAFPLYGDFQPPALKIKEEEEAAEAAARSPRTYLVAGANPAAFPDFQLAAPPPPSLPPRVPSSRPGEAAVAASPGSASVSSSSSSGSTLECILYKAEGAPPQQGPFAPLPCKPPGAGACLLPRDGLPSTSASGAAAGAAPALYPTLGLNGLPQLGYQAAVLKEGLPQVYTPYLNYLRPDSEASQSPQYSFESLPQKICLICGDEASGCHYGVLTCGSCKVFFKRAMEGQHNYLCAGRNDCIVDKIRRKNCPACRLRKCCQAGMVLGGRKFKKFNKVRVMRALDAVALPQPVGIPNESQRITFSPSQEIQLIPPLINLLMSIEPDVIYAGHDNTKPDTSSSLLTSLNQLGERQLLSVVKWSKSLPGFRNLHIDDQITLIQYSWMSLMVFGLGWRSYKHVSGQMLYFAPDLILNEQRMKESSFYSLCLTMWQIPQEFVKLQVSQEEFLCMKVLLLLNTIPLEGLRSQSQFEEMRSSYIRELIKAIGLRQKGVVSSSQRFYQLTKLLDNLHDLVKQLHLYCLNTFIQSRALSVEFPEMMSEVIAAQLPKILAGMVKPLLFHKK
Procedure: This example illustrates the compound's relative affinity to rabbit uterus cytosol progesterone receptor compared with progesterone. The method used for this purpose is a modification of methods already described by Kontula, K. et al. (Acta Endocrinol. 78 (1975) 574) and Terenius, L. (Steroids 23 (1974) 909) among others.
Female rabbits (3-4 pounds) from Knut Larsen, Uddevalla, Sweden, were injected i.m. with 1 mg Estradurin (polyestradiol phosphate, 1 mg/ml saline, AB Leo, Sweden). After one week, the animals were killed and the uteri were immediately removed, chilled and cut free from connective tissues. All the following operations were performed at 0°-4° C. The uteri were cut into small pieces and washed several times with 3 vol. of buffer at pH 7.4 containing 50 MM TRIS-HCl, 1.5 mM EDTA, 3 mM NaN3, 2 mM dithiothreitol, and 25% glycerol (by vol.). The tissue was homogenized in the same buffer (3 vol.) with four 15-s bursts at rheostat setting 36-37 of an Ultra Turrax (Janke and Kunkel KG, Staufen, The Federal Republic of Germany). The homogenate was centifuged in a Sorvall GLC-2 centrifuge for 15 min at 600×g. The supernatanate was recentrifuged at 105,000×g for 60 min in a Beckman ultracentrifuge model LB-65-B with rotor SW 56.
One ml portions of the supernatant (rabbit uterus cytosol) were pipetted into small centrifuge tubes of glass and were kept at -70° C. until used. The protein content was determined by the method of Lowry (J. Biol. Chem. 193 (1951) 265).
10.0 mg of each compound was dissolved in 10.0 ml 99.5% ethanol. 100 μl of this standard solution was diluted to 5.0 ml ethanol/glycerol 1:1 (v/v). The ethanol was evaporated by blowing air at 40° C. on the solution. The volume was then adjusted to 5.0 ml by adding buffer without glycerol.
The compounds were diluted with glycerol/buffer 1:1 to final concentrations between 10^-8 -10^-5 M in total 300 μl incubation media. 100 μl of each compound and of each dilution were incubated in small centrifuge tubes (2 ml) together with 100 μl (10 pg) ^3 H-progesterone (1,2,6,7-3H-progesterone, 47.8 Ci/mMol, The Radiochemical Centre, Amersham, England) and 100 μl cytosol adjusted with buffer to a final concentration of about […]. The incubations were carried out for 16-18 hours at 4° C.
The separation of bound from free radioactivity was carried out at 0° C. using the dextran coated charcoal technique (DCC). To each incubation tube was added 0.5 ml DCC-suspension (0.05% dextran-70, Pharmacia, Uppsala, Sweden and 0.5% Norit A, Sigma, Saint Louis, Missouri, U.S.A.) The tubes were agitated 2-3 times during 10 minutes whereupon they were centrifuged at 100×g for five minutes. The supernatantes were decanted directly into Scintillation vials (polyethene, Packard) containing 10 ml InstaGel (Packard). The radioactivity was counted in a Philip's liquid scintillation spectrometer Model PW 4510/00 with external standard and automatic quenching correction.
To incubation tubes were added 100 μl cytosol, 100 μl ^3 H-progesterone (10 pg) and 100 μl of different dilutions of non-radioactive progesterone in glycerol/buffer 1:1 ranging from 0-10^4 pg/100 μl. The tubes were incubated parallel with the compounds described above. The radioactivity was calculated by substracting the counted radioactivity in the incubation tubes with the radioactivity counted in incubations tubes in which the cytosol was replaced with buffer (100 μl).
The concentration of non-radioactive progesterone [P]i which competes for 50% of bound radioactive progesterone was calculated from the standard curve constructed [B] i/[B] o=0.5 where [B]i is the bound radioactivity at different concentrations of non-radioactive progesterone and [B]o is the bound radioactivity at progesterone concentration zero.
In the same manner, curves were constructed for each compound X and the concentration for each compound which competes for 50% with bound ^3 H-progesterone ([X]50) was calculated. […]

Compound: CC(=O)[C@@]1(OC(=O)COC(=O)c2ccc(C)c(N(CCCl)CCCl)c2)CC[C@H]2[C@@H]3CCC4=CC(=O)CC[C@]4(C)[C@H]3CC[C@@]21C [Compound 3:7, 17α-/3-(N,N-bis(2-chloroethyl)amino)-4-methylbenzoyloxyacetoxy/pregn-4-ene-3,20-dione]
- Mortality [1]: 0/12
- Tumour weight Treated/Control ([1]; 8th day): 2%
- relative binding affinity (RBA) [2]: 1.8%
